Measured values published in paper PMC8370991, “Structural basis for the inhibition of HTLV-1 integration inferred from cryo-EM deltaretroviral intasome structures” (Nature Communications, 2021).
Where two headings read alike, the source gives them in different places.

What was measured:
[1] = target: T1, recombinant HTLV-1 IN (Human T-cell leukemia virus 1, UniProt P03362); test: In vitro integration strand transfer assay with HTLV-1 IN; type: biochemical; details: for HTLV-1 IN strand transfer activity (No drug = 100): INSTI at 634 nM
T1 construct: made in house
Summary of the method: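 Recombinant HTLV-1 IN (4 μg) with annealed 3′-processed LTR donor DNA (0.53 μM) preincubated 15 min RT with compound (screen at 634 nM) in PIPES pH 6.0, NaCl, MgCl2, ZnCl2, DTT; supercoiled plasmid target added, 1 h 37 °C. Concerted integration product quantified by agarose-gel densitometry; IC50 from dose–response fits, triplicate.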

[2] = tested on: HTLV-1; test: MT-2-Jurkat cell-to-cell HTLV-1 infection, proviral load by qPCR; type: cell-based
Description: Six of the most promising compounds were selected for assessment of their efficacy in inhibiting HTLV-1 viral infection. To this end, we employed an MT-2-Jurkat co-culture relying on cell-to-cell-based HTLV-1 transmission, which we successfully used in a previous study. In this assay format, the infection of Jurkat cells is measured via real-time quantitative PCR (qPCR) determination of the proviral load (PVL). […] A block in the integration reaction was confirmed by Alu-qPCR experiments (Supplementary Fig. 6). […] We suspect this is owing to a more efficient uptake of BIC than RAL by Jurkat T cells.
MT-2 and E6.1 Jurkat T-cell lines (ATCC) were used for the experiments. The cells were cultured at 37 °C with 5% CO2 and maintained in Roswell Park Memorial Institute (RPMI) media supplemented with 10% fetal bovine serum (FBS), 100 U penicillin, 100 μg/mL streptomycin and 0.25 μg/mL fungizone.
The HTLV-1 cell-to-cell infection was performed as previously described; Jurkat T cells were counted and diluted in complete RPMI to a final concentration of 0.25 × 10^6 cells/ml and pre-treated with INSTI drugs (final concentration ranging from 0.2 pM to 2 μM) or DMSO as a control for 24 h. MT-2 cells were resuspended in RPMI at a concentration of 2 × 10^6 cells/ml and subjected to a nonlethal γ-radiation dose of 400 Gy. Cells were resuspended at a concentration of 2 × 10^6 cells/ml in serum-free RPMI supplemented with the corresponding INSTI drug. Co-culture of 0.5 × 10^6 for each cell line was carried out for 16 h, after which cells were washed in PBS and resuspended in 1 ml of depletion buffer (PBS, 0.1% FBS and 2 mM EGTA). MT-2 cells were depleted from the culture by means of anti-CD25 magnetic beads (DynabeadsTM CD25, Thermo Fisher). Depletion efficiency was confirmed via flow cytometry as described previously. Jurkat cells were cultured for 2 weeks in complete RPMI supplemented with the drugs and genomic DNA was extracted (DNeasy kit, Qiagen) and stored at −20 °C for subsequent analysis. All the experiments were done in triplicate.
The PVL was measured as previously described[9],[53],[54]. Jurkat genomic DNA was quantified and diluted to a concentration of 5 ng/μL. Real-time qPCR analysis were conducted on 20 ng of gDNA to measure the level of HTLV-1 tax and gapdh genes (Supplementary Table 5). For the standard curve, the gDNA from an HTLV-1 naturally infected T-cell clone (clone 11.50, courtesy of professor Charles Bangham), which has one copy of tax and two of gapdh, was used. The integrated provirus copy number was calculated as follows: (tax copy numbers)/(2×gapdh copy number)[53], and normalised to the DMSO-treated control which was set to 100%. The PVL data were fitted to a dose–response curve in Prism 7 and the EC50 was calculated. Alu-PCR was performed as previously described in ref. [55]. In brief, the first PCR reaction was done with Phusion polymerase starting from 80 ng of gDNA using the ALU-specific primers (Alu-F/Gag-R). The nested PCR was run diluting the amplificated product 1:50. The reaction was done as a qPCR using Gag-specific primers (Gag-R/Gag-F) and the Luna SYBR dye reaction mix (New England Biolabs). The integrated provirus copy numbers were normalised to GAPDH and Jurkat cells treated with DMSO and infected with HTLV-1 were set to 100%. Experiments were done in triplicate.

[3] = Replicate 1, read-out: HTLV-1 IN strand transfer IC50
[4] = Replicate 2, read-out: HTLV-1 IN strand transfer IC50
[5] = Replicate 3, read-out: HTLV-1 IN strand transfer IC50
[6] = integrase strand-transfer drug titration, n = 3, read-out: HTLV-1 IC50 ± stdev
[7] = MT-2-Jurkat cell-to-cell infection, proviral load, n = 3, read-out: HTLV-1 EC50 ± stdev
[8] = Replicate 1, read-out: HTLV-1 infection EC50
[9] = Replicate 2, read-out: HTLV-1 infection EC50
[10] = Replicate 3, read-out: HTLV-1 infection EC50
[11] = HTLV-1 infection of Jurkat T cells

T1 sequence (P03362 1168-1462): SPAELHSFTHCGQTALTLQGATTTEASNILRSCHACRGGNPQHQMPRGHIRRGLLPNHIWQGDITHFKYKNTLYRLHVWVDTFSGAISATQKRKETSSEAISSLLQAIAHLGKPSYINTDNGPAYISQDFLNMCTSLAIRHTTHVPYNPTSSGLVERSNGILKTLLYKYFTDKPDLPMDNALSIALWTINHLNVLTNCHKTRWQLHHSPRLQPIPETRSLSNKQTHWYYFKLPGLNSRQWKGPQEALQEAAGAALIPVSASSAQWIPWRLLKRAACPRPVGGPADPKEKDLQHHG

Structure (SMILES)	HTLV-1 IN strand transfer activity (No drug = 100) ([1]; Replicate 1)	HTLV-1 IN strand transfer activity (No drug = 100) ([1]; Replicate 2)	HTLV-1 IN strand transfer activity (No drug = 100) ([1]; Replicate 3)	IC50 [1, 3]	IC50 [1, 4]	IC50 [1, 5]	inhibition of HTLV-1 IN in the screen compared with RAL ([1]; each compound at 634 nM)	IC50 [1, 6]	EC50 [2, 7]	EC50 [2, 8]	EC50 [2, 9]	EC50 [2, 10]	improvement in EC50 compared with RAL [2, 11]	lower activity in blocking HTLV-1 infection compared with RAL [2, 11]	EC50 ([2]; Primate T-lymphotropic virus 1, read-out: HTLV-1 EC50 ± stdev, MT-2-Jurkat cell-to-cell infection, proviral load, n = 3)	EC50 ([2]; Primate T-lymphotropic virus 1, read-out: HTLV-1 infection EC50, Replicate 1)	EC50 ([2]; Primate T-lymphotropic virus 1, read-out: HTLV-1 infection EC50, Replicate 2)	EC50 ([2]; Primate T-lymphotropic virus 1, read-out: HTLV-1 infection EC50, Replicate 3)
CC(C)n1c(C(=O)N(C)C)c2c(c(O)c1=O)C(=O)N(Cc1ccc(F)c(Cl)c1)CC2 [XZ236, 6-(3-chloro-4-fluorobenzyl)-4-hydroxy-2-isopropyl-N,N-dimethyl-3,5-dioxo-2,3,5,6,7,8-hexahydro-2,6-naphthyridine-1-carboxamide, reference compound]	9.7581%	22.4849%	26.0036%	130 nM	504 nM	301 nM	outperformed RAL	322 ± 121 nM	3.74 ± 1.42 nM	5.38 nM	1.48 nM	4.41 nM						
Nc1c(C(=O)NCc2ccc(F)cc2F)c(=O)n(O)c2ncc(CCCO)cc12 [XZ423, 4-amino-N-(2,4-difluorobenzyl)-1-hydroxy-6-(3-hydroxypropyl)-2-oxo-1,2-dihydro-1,8-naphthyridine-3-carboxamide]	5.722%	15.1459%	14.6599%	144 nM	185 nM	155 nM		155 ± 33.5 nM	4.11 ± 1.52 nM	3.95 nM	3.49 nM	1.75 nM						
Nc1c(C(=O)NCc2ccc(F)cc2F)c(=O)n(O)c2ncc(CCS(=O)(=O)c3ccccc3)cc12 [XZ446, 4-amino-N-(2,4-difluorobenzyl)-1-hydroxy-2-oxo-6-(2-(phenylsulfonyl)ethyl)-1,2-dihydro-1,8-naphthyridine-3-carboxamide]	11.4924%	20.4545%	15.1675%	143 nM	85 nM	126 nM		115 ± 9.5 nM	2.57 ± 0.81 nM	3.46 nM	2.16 nM	1.94 nM	~2.5- to fivefold and two- to fivefold					
Nc1c(C(=O)NCc2ccc(F)cc2F)c(=O)n(O)c2ncc(CCC(=O)NCCO)cc12 [XZ448, 4-amino-N-(2,4-difluorobenzyl)-1-hydroxy-6-(3-((2-hydroxyethyl)amino)-3-oxopropyl)-2-oxo-1,2-dihydro-1,8-naphthyridine-3-carboxamide]	5.498%	23.674%	16.1231%	99 nM	227 nM	108 nM		132 ± 29.7 nM	139 ± 81 nM	125 nM	146 nM	116 nM		~ 20 fold				
CN(C)C(=O)CCc1cnc2c(c1)c(N)c(C(=O)NCc1ccc(F)cc1F)c(=O)n2O [XZ450, 4-amino-N-(2,4-difluorobenzyl)-6-(3-(dimethylamino)-3-oxopropyl)-1-hydroxy-2-oxo-1,2-dihydro-1,8-naphthyridine-3-carboxamide]	10.2814%	19.561%	9.5729%	115 nM	180 nM	76 nM		120 ± 36.1 nM					~2.5- to fivefold and two- to fivefold		1.67 ± 1.52 nM	2.34 nM	1.89 nM	1.25 nM
